In ChEMBL document CHEMBL4888484, “Replenishing the malaria drug discovery pipeline: Screening and hit evaluation of the MMV Hit Generation Library 1 (HGL1) against asexual blood stage Plasmodium falciparum ,using a nano luciferase reporter read-out” (2022):

What was measured:
Plasmodium falciparum [1] = assay: Hit confirmation in dose-response curve in Dd2 pLDH assay, at 72h; assay type: functional, organism-based; design: timepoint 72 hour; conditions: Dd2, Erythrocyte
Plasmodium falciparum [2] = assay: Hit confirmation in dose-response curve in NF54 nanoGlo assay, at 72h; assay type: functional, organism-based, Erythrocyte; design: timepoint 72 hour; conditions: Plasmodium falciparum, NF54, Erythrocyte, 72 h
Plasmodium falciparum [3] = assay: Hit confirmation in dose-response curve in NF54 nanoGlo assay, at 12h; assay type: functional, organism-based, Erythrocyte; design: timepoint 12 hour; conditions: Plasmodium falciparum, NF54, Erythrocyte, 12 h
[4] = Hit confirmation in dose-response curve in HepG2 cytotoxicity assay, at 72h; assay type: toxicity, cell-based; design: timepoint 72 hour; conditions: human, HepG2 cells
Plasmodium falciparum [5] = assay: Hit confirmation in dose-response curve in NF54 pLDH assay, at 72h; assay type: functional, organism-based; design: timepoint 72 hour; conditions: NF54, Erythrocyte

| Compound | IC50 (Plasmodium falciparum [1]) [µM] | IC50 (Plasmodium falciparum [2]) [µM] | IC50 (Plasmodium falciparum [3]) [µM] | IC50 (Plasmodium falciparum [5]) [µM] | IC50 at 72 h [4] [µM] |
| --- | --- | --- | --- | --- | --- |
| CC1CCC(c2noc([C@H]3CCO[C@@H]3c3cncc(Br)c3)n2)CC1 (stereo not given in full) | 3.89 | 2.88 | > 10 | 4.47 | > 10 |
| CC1CCN(Cc2ccc(CNCc3c[nH]nc3-c3ccc(F)cc3)cc2)CC1 | 3.55 | 3.47 | 7.94 | 6.61 | > 10 |
| O[C@@H](CNCc1ccsc1C(F)(F)F)c1cc(Cl)c2c(c1)OCCO2 | 3.47 | 3.16 | 7.24 | 6.46 | > 10 |
| CN(C)CCN(C)c1ccc(Br)cc1NCc1cncn1C | 2.95 | 2 | 3.72 | 3.47 | > 10 |
| CC(C)O[C@@H]1CCN(C[C@H](O)c2ccc(C(F)(F)F)cc2)C1 | 2.82 | 2.09 | 3.31 | 3.09 | > 10 |
| COc1cc2c(cc1OC)[C@@H](NC(=O)c1cnc(C3(C)OCCO3)s1)CCCC2 | 4.79 | 2.04 | 4.79 | 7.41 | > 10 |
| NC(=O)C(NC(=O)c1cccc(Cl)c1)C(N)=O | > 10 | > 10 | > 10 | > 10 | > 10 |
| NC1CC(NCCc2cccc3cccnc23)c2ccccc21 (stereo not given) | 5.75 | 2.45 | 5.01 | 7.76 | > 10 |
| Cc1ccc(C(F)(F)C(=O)NCCC(=O)NS(C)(=O)=O)cc1 | > 10 | 2.75 | > 10 | 0.447 | > 10 |
| CC1(C)C(NCC(O)COc2ccc(F)c(F)c2)[C@@H]2CCC[C@@H]21 (stereo not given in full) | 3.24 | 1.78 | 2.95 | 3.24 | > 10 |
| Cc1ccccc1C(=O)Cc1ncc[nH]1 | 3.89 | 2.29 | 4.9 | 5.75 | > 10 |
| Cc1cc(C(=O)NC2CC(C)n3ccnc32)nn1C(C)C (stereo not given) | > 10 | 2.45 | > 10 | 0.1 | > 10 |
| O=C(c1ccccc1)c1ccc(O)c(CN2CCCN(c3ccc(C(F)(F)F)cn3)CC2)c1O | 3.09 | 1.82 | 2.82 | 3.72 | > 10 |

Now from value to molecule, other results behind:

| IC50 (Plasmodium falciparum [1]) [µM] | IC50 (Plasmodium falciparum [2]) [µM] | IC50 (Plasmodium falciparum [3]) [µM] | IC50 (Plasmodium falciparum [5]) [µM] | Compound | IC50 at 72 h [4] [µM] |
| --- | --- | --- | --- | --- | --- |
| 2 | 0.794 | > 10 | 0.871 | O=C(Nc1cccc2cccnc12)c1ccccn1 | 3.47 |
| 1.66 | 1.86 | > 10 | 2.34 | Cc1nn(C(C)(C)C)c2nc(C3CC3)cc(C(=O)N(C)c3ccccc3)c12 | > 10 |
| 1.86 | 0.759 | 4.07 | 2.82 | O=c1nc2n(nc1-c1ccccc1)C1(CCC1)Nc1ccccc1-2 | > 10 |
| 2.14 | 1.23 | 1.78 | 3.8 | Cn1cncc1CC(=O)Nc1ccnc(NC(=O)OC(C)(C)C)c1 | > 10 |
| 2.34 | 2.14 | 3.55 | 7.76 | Oc1c([C@@H](c2ccccn2)N2CCCC2)ccc2cccnc12 | > 10 |
| 0.447 | 0.513 | 0.661 | 0.562 | C[C@@H](CN)N(C)c1ccnc2cc(Br)cnc12 | > 10 |
| 2.29 | 1.29 | 2.45 | 2.45 | FC(F)(F)C1CN(c2nc(-c3ccccn3)nc3c2CCC3)C1 | > 10 |
| 2.75 | 1.58 | 2.04 | 2.75 | Oc1cccc(CN[C@H]2CCCc3occc32)c1Cl | > 10 |
| 1.07 | 1.05 | 1.55 | 1.58 | CC1CC(Nc2ncnc3cc(Br)ccc23)CCN1C (stereo not given) | > 10 |
